Each structure is given as a SMILES string. Structures can show the parent of a compound that is named as a salt.

In one test the test system is Aβ1-42 production. Description: Cellular assay for inhibition of Aβ1-42 production (H4 APP751 SWE clone 8.20). The format is cell-based. The conditions noted are these: 19 h, H4 APP751 SWE clone 8.20 cells, 19 h incubation; class symbols; read-out: Activity Rating (Aβ42 cellular IC50). Put shortly: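 Inhibition values are IC50s fitted to Viewlux counts after a 19 h compound exposure at 37 °C. Aβ42 was captured by the neoepitope-specific antibody 565 (0.8 ng/well) paired with N-terminal 26D6 (75 ng/well), incubated overnight at 4 °C in pH 7.4 Tris-HCl buffer containing 0.2% BSA.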
`CCN(C)c1nc(Nc2ccc(-n3cnc(Cl)c3)c(OC)c2)nc2c1CCCC2c1ccccc1` (racemic) [Example 124, N^2-(4-(4-Chloro-1H-imidazol-1-yl)-3-methoxyphenyl)-N^4-ethyl-N^4-methyl-8-phenyl-5,6,7,8-tetrahydroquinazoline-2,4-diamine]: the IC50 lay in the range of 10 to 100 nM.
For the compound `CNc1nc(Nc2ccc(-c3ccnc(C)c3)c(OC)c2)nc2c1CCC2c1ccccc1` (stereo not shown) [Example 261, N2-(3-methoxy-4-(2-methylpyridin-4-yl)phenyl)-N4-methyl-7-phenyl-6,7-dihydro-5H-cyclopenta[d]pyrimidine-2,4-diamine], the IC50 was 1.5 to 9.9 nM.
Regarding `CNc1nc(Nc2ccc3[nH]c(C)cc3c2)nc2c1CCC2c1ccccc1` (stereo not shown) [Example 249, N4-methyl-N2-(2-methyl-1H-indol-5-yl)-7-phenyl-6,7-dihydro-5H-cyclopenta[d]pyrimidine-2,4-diamine], the IC50 is greater than 1000 nM.
As to `CNc1nc(Nc2ccc(C(F)(F)F)cc2)nc2c1CCC2c1ccccc1` (stereo not shown) [Example 239, N4-methyl-7-phenyl-N2-(4-(trifluoromethyl)phenyl)-6,7-dihydro-5H-cyclopenta[d]pyrimidine-2,4-diamine], the IC50 lay within 100 to 1000 nM.
Take `CCNc1nc(Nc2ccc(-n3ncnc3C)c(F)c2)nc2c1COC2c1ccc(F)cc1` (stereo not shown) [Example 78, N^4-ethyl-N^2-(3-fluoro-4-(5-methyl-1H-1,2,4-triazol-1-yl)phenyl)-7-(4-fluorophenyl)-5,7-dihydrofuro[3,4-d]pyrimidine-2,4-diamine]: the IC50 lay in the range of 10 to 100 nM.
Turning to `CNc1nc(Nc2ccc3nc(C)oc3c2)nc2c1CCC2c1ccccc1` (stereo not shown) [Example 252, N4-methyl-N2-(2-methylbenzo[d]oxazol-6-yl)-7-phenyl-6,7-dihydro-5H-cyclopenta[d]pyrimidine-2,4-diamine], the IC50 was greater than 1000 nM.
With `CNc1nc(Nc2ccncc2)nc2c1CCC2c1ccccc1` (stereo not shown) [Example 224, N4-methyl-7-phenyl-N2-(pyridin-4-yl)-6,7-dihydro-5H-cyclopenta[d]pyrimidine-2,4-diamine], the IC50 was greater than 1000 nM.
For `COc1cc(Nc2nc3c(c(N4CC(C)(C#N)C4)n2)CCC3c2ccc(F)cc2)ccc1-n1cnc(Cl)c1` (stereo not shown) [Example 186, 1-(2-(4-(4-chloro-1H-imidazol-1-yl)-3-methoxyphenylamino)-7-(4-fluorophenyl)-6,7-dihydro-5H-cyclopenta[d]pyrimidin-4-yl)-3-methylazetidine-3-carbonitrile], the IC50 was in the range of 10 to 100 nM.
Consider `COc1cc(Nc2nc3c(c(N4CCC(F)(F)CC4)n2)CCC3c2ccc(F)cc2)ccc1-n1cnc(Cl)c1` (racemic) [Example 39, N-(4-(4-chloro-1H-imidazol-1-yl)-3-methoxyphenyl)-4-(4,4-difluoropiperidin-1-yl)-7-(4-fluorophenyl)-6,7-dihydro-5H-cyclopenta[d]pyrimidin-2-amine], for which the IC50 is 10 to 100 nM.
Turning to `CNc1nc(Nc2ccc(CC#N)cc2)nc2c1CCC2c1ccccc1` (stereo not shown) [Example 231, 2-(4-(4-(methylamino)-7-phenyl-6,7-dihydro-5H-cyclopenta[d]pyrimidin-2-ylamino)phenyl)acetonitrile], the IC50 was 100 to 1000 nM.
On to `CNc1nc(Nc2ccc(-n3ncnc3C)c(F)c2)nc2c1CCC2c1ccc(F)cc1` (single isomer, unassigned) [Example 26A, N^2-(3-fluoro-4-(5-methyl-1H-1,2,4-triazol-1-yl)phenyl)-7-(4-fluorophenyl)-N^4-methyl-6,7-dihydro-5H-cyclopenta[d]pyrimidine-2,4-diamine], for which the IC50 lay in the range of 10 to 100 nM.
Same read-out and setting: for `CNc1nc(Nc2ccc(-n3cnc(Cl)c3)c(OC)c2)nc2c1CN(C)CC2c1ccc(F)cc1` (stereo not shown) [Example 163A, N2-(4-(4-chloro-1H-imidazol-1-yl)-3-methoxyphenyl)-8-(4-fluorophenyl)-N4,6-dimethyl-5,6,7,8-tetrahydropyrido[4,3-d]pyrimidine-2,4-diamine] the value was 1.5 to 9.9 nM; for `COc1cc(Nc2nc3c(c(N4CC(F)(F)C4)n2)COCC3c2ccc(F)cc2)ccc1-n1cnc(Cl)c1` (racemic) [Example 63, N-(4-(4-chloro-1H-imidazol-1-yl)-3-methoxyphenyl)-4-(3,3-difluoroazetidin-1-yl)-8-(4-fluorophenyl)-7,8-dihydro-5H-pyrano[4,3-d]pyrimidin-2-amine], 10 to 100 nM.
Same read-out and setting: for `COc1cc(Nc2nc3c(c(N4C[C@@H](C)O[C@@H](C)C4)n2)COC3c2ccc(F)cc2)ccc1-n1cnc(Cl)c1` (mixture of isomers) [Example 84, N-(4-(4-chloro-1H-imidazol-1-yl)-3-methoxyphenyl)-4-((2S,6R)-2,6-dimethylmorpholino)-7-(4-fluorophenyl)-5,7-dihydrofuro[3,4-d]pyrimidin-2-amine, 2 TFA] the value was 10 to 100 nM; for `CNc1nc(Nc2nc3cc(C#N)ccc3[nH]2)nc2c1CCC2c1ccccc1` (stereo not shown) [Example 232, 2-(4-(methylamino)-7-phenyl-6,7-dihydro-5H-cyclopenta[d]pyrimidin-2-ylamino)-1H-benzo[d]imidazole-5-carbonitrile], greater than 1000 nM.
Consider `CNc1nc(Nc2ccc(C(=O)N(C)C)cc2)nc2c1CCC2c1ccccc1` (stereo not shown) [Example 243, N,N-dimethyl-4-(4-(methylamino)-7-phenyl-6,7-dihydro-5H-cyclopenta[d]pyrimidin-2-ylamino)benzamide], for which the IC50 was in the range of 100 to 1000 nM.

Staying with this test, now noted: 19 h, H4 APP751 SWE clone 8.20 cells, 19 h incubation; read-out: Activity Rating (Aβ42 cellular IC50), numeric value.
Turning to `CCNc1nc(Nc2ccc(-n3cnc(Cl)c3)c(OC)c2)nc2c1CCOC2c1ccc(F)cc1` (stereo not shown) [Example 88A, N2-(4-(4-chloro-1H-imidazol-1-yl)-3-methoxyphenyl)-N4-ethyl-8-(4-fluorophenyl)-6,8-dihydro-5H-pyrano[3,4-d]pyrimidine-2,4-diamine], the IC50 turned out to be 4.5 nM.
As to `CCNc1nc(Nc2ccc(-n3cnc(Cl)c3)c(OC)c2)nc2c1CCN(C(C)=O)C2c1ccc(F)cc1` (stereo not shown) [Example 171, 1-(2-(4-(4-chloro-1H-imidazol-1-yl)-3-methoxyphenylamino)-4-(ethylamino)-8-(4-fluorophenyl)-5,6-dihydropyrido[3,4-d]pyrimidin-7(8H)-yl)ethanone], the IC50 stood at 16 nM.

Staying with this test, now noted: H4 APP751 SWE clone 8.20 cells, 19 h incubation; class symbols; read-out: Activity Rating (Aβ42 cellular IC50).
Regarding `CCN(C)c1nc(Nc2ccc(-n3cnc(Cl)c3)c(OC)c2)nc2c1COCC2c1ccccc1` (single isomer, unassigned) [Example 52A, N^2-(4-(4-Chloro-1H-imidazol-1-yl)-3-methoxyphenyl)-N^4-ethyl-N^4-methyl-8-phenyl-7,8-dihydro-5H-pyrano[4,3-d]pyrimidine-2,4-diamine], the IC50 is 1.5 to 9.9 nM.
With `CCNc1nc(Nc2ccc(-n3cnc(Cl)c3)c(OC)c2)nc2c1COCC2c1ccc(F)c(F)c1` (stereo not shown) [Example 113B, N2-(4-(4-chloro-1H-imidazol-1-yl)-3-methoxyphenyl)-8-(3,4-difluorophenyl)-N4-ethyl-7,8-dihydro-5H-pyrano[4,3-d]pyrimidine-2,4-diamine], the IC50 lay within 10 to 100 nM.
Regarding `CCNc1nc(Nc2ccc(-n3ncnc3C)c(F)c2)nc2c1COCC2c1ccc(F)c(F)c1` (stereo not shown) [Example 116A, 8-(3,4-difluorophenyl)-N4-ethyl-N2-(3-fluoro-4-(5-methyl-1H-1,2,4-triazol-1-yl)phenyl)-7,8-dihydro-5H-pyrano[4,3-d]pyrimidine-2,4-diamine], the IC50 was in the range of 1.5 to 9.9 nM.
Take `CNc1nc(Nc2ccc(-n3cnc(C)n3)c(F)c2)nc2c1CN(S(=O)(=O)C1CC1)CC2c1ccccc1` (stereo not shown) [Example 141A, 6-(cyclopropylsulfonyl)-N2-(3-fluoro-4-(3-methyl-1H-1,2,4-triazol-1-yl)phenyl)-N4-methyl-8-phenyl-5,6,7,8-tetrahydropyrido[4,3-d]pyrimidine-2,4-diamine]: the IC50 fell in the range of 1.5 to 9.9 nM.
For `COc1cc(Nc2nc3c(c(N4CCC(F)(F)C4)n2)CCC3c2cc(F)c(F)c(F)c2)ccc1-n1cnc(Cl)c1` (single isomer, unassigned) [Example 107A, N-(4-(4-chloro-1H-imidazol-1-yl)-3-methoxyphenyl)-4-(3,3-difluoropyrrolidin-1-yl)-7-(3,4,5-trifluorophenyl)-6,7-dihydro-5H-cyclopenta[d]pyrimidin-2-amine], the IC50 is 10 to 100 nM.
Take `CNc1nc(Nc2ccc(-n3cnc(Cl)c3)c(OC)c2)nc2c1CCC2c1ccccc1` (single isomer, unassigned) [Example 7B, N^2-(4-(4-chloro-1H-imidazol-1-yl)-3-methoxyphenyl)-N^4-methyl-7-phenyl-6,7-dihydro-5H-cyclopenta[d]pyrimidine-2,4-diamine]: the IC50 lay in the range of 10 to 100 nM.
Take `COc1cc(Nc2nc3c(c(N4CCCC4C)n2)CCC3c2ccc(F)cc2)ccc1-n1cnc(Cl)c1` (single isomer, unassigned) [Example 19A, N-(4-(4-chloro-1H-imidazol-1-yl)-3-methoxyphenyl)-7-(4-fluorophenyl)-4-(2-methylpyrrolidin-1-yl)-6,7-dihydro-5H-cyclopenta[d]pyrimidin-2-amine]: the IC50 lay in the range of 10 to 100 nM.
With `CNc1nc(Nc2ccc(-n3cnc(C)n3)c(OC)c2)nc2c1CCC2c1ccc(F)cc1F` (single isomer, unassigned) [Example 193A, 7-(2,4-difluorophenyl)-N2-(3-methoxy-4-(3-methyl-1H-1,2,4-triazol-1-yl)phenyl)-N4-methyl-6,7-dihydro-5H-cyclopenta[d]pyrimidine-2,4-diamine], the IC50 is 100 to 1000 nM.
In the case of `COc1cc(Nc2nc3c(c(N4CCC4)n2)CCC3c2ccccc2)ccc1-n1cnc(Cl)c1` (single isomer, unassigned) [Example 6B, 4-(azetidin-1-yl)-N-(4-(4-chloro-1H-imidazol-1-yl)-3-methoxyphenyl)-7-phenyl-6,7-dihydro-5H-cyclopenta[d]pyrimidin-2-amine], the half-maximal inhibitory concentration (IC50) was 10 to 100 nM.
The same measure, in the same setting: for `CCNc1nc(Nc2ccc(-n3ncnc3C)c(F)c2)nc2c1CN(S(C)(=O)=O)CC2c1ccccc1` (stereo not shown) [Example 140A, N4-ethyl-N2-(3-fluoro-4-(5-methyl-1H-1,2,4-triazol-1-yl)phenyl)-6-(methylsulfonyl)-8-phenyl-5,6,7,8-tetrahydropyrido[4,3-d]pyrimidine-2,4-diamine] the value was 1.5 to 9.9 nM.

By IC50 is commonly meant the concentration needed to halve the response being measured.

The record behind these values is patent US8637525B2, “Compounds for the reduction of beta-amyloid production” (Bristol-Myers Squibb Company, priority 2009, dated 2014).
